Laboratory results from patent publication US12139458B2, “(2,5-dioxopyrrolidin-1-yl)(phenyl)-acetamide derivatives and their use in the treatment of neurological diseases” (UNIWERSYTET JAGIELLONSKI, priority 2019, dated 2024).

Tests used:
[1] = system: male Swiss albino mice (CD-1); experiment: Maximal electroshock seizure test (MES); format: in vivo; conditions: 0.5 h, mice; for ED50 / responders at 100 mg/kg: Mus musculus, ip; for responders at 100 mg/kg: read-out: MES: number of mice protected/number of mice tested (converted)
Experimental: (§1) The male Swiss albino mice (CD-1) weighing 18-26 g were used. All procedures were carried out in accordance with applicable Polish and international guidelines on the ethics of animal testing, after obtaining appropriate institutional approval. The substances were administered intraperitoneally (i.p.), in 1% aqueous solution of Tween, as single injections with a volume of 10 ml/kg, 30 minutes before the given test. Screening was performed on groups consisted of 4 mice. The average effective dose (ED50) in given test and toxic dose in the rotarod test (TD50) was estimated based on the results obtained in 3-4 groups of animals consisting of 6 mice. All tests were carried out based on the procedures described in the specialist literature.
In the MES test, the seizures were induced by an electrical stimulus lasting of 0.2 s duration, 500 V voltage and 25 mA intensity. The electrical stimuli was generated using an electric shock generator (Rodent shocker, Type 221, Hugo Sachs Elektronik, Germany) and delivered to the animal using electrodes placed on the auricles. The study was conducted 30 minutes after intraperitoneal administration of the compounds at various doses. During the experiment, the number of animals that experienced a seizure episode in the form of tonic extension of the hind limbs was counted (Kamiński, K.; Rapacz, A.; Łuszczki, J. J.; Latacz, G.; Obniska, J.; Kieć-Kononowicz, K.; Filipek, B. Bioorg. Med. Chem. 2015, 23, 2548-2561; Castel-Branco, M. M.; Alves, G. L.; Figueiredo, I. V.; Falcão, A. C.; Caramona, M. M. Methods Find. Exp. Clin. Pharmacol. 2009, 31, 101-106).
(§2) To perform a statistical evaluation of the results, one-way ANOVA variance analysis and Dunnett's post hoc test (multiple comparison test) were used. The value at the significance level p<0.05 was considered statistically significant.

[2] = system: male Swiss albino mice (CD-1); experiment: Psychomotor seizure test 6 Hz (32 mA); format: in vivo; conditions: Mus musculus, ip, 0.5 h, mice; for responders at 100 mg/kg: screening, 100 mg/kg i.p., read-out: 6 Hz (32 mA): number of mice protected/number of mice tested (converted)
Experimental: as §1
In the 6 Hz test, seizures were induced by an electric stimulus of 32 mA and/or 44 mA and a frequency of 6 pulses per second. An electrical pulse was generated using an electric shock generator (ECT Unit 57800; Ugo Basile, Gemonio, Italy) and delivered to the animal using ocular electrodes. Before starting the test, the eye surface was gently moistened with a solution of local anesthetic (1% lidocaine solution). The study was conducted 30 minutes after intraperitoneal administration of the compounds at various doses. An electrical pulse was delivered continuously for a period of 3 seconds, followed by observation of the animal for a period of 10 seconds. During this time, immobility or stun associated with rearing, forelimb clonus, twitching of the vibrissae and Straub's tail were observed. These symptoms persist throughout the observation period, indicating the occurrence of psychomotor seizures in mice. Mice resuming normal behavior within 10 s after stimulation were considered as protected (Barton, M. E.; Klein, B. D.; Wolf, H. H.; White, H. S. Epilepsy Res. 2001, 47, 217-227; Wojda, E.; Wlaź, A.; Patsalos, P. N.; Łuszczki, J. J. Epilepsy Res. 2009, 86, 163-174).
as §2

[3] = system: male Swiss albino mice (CD-1); experiment: Psychomotor seizure test 6 Hz (44 mA); format: in vivo; conditions: 0.5 h, mice; for 6 Hz (44 mA): number of mice protected/number of mice tested: screening, 100 mg/kg i.p.
Experimental: as §1, with “All” for “The male Swiss albino mice (CD-1) weighing 18-26 g were used. All”, “The average effective dose (ED50) in given test and toxic dose in the rotarod test (TD50) was estimated based on the results obtained in 3-4 groups of animals consisting of 6 mice.” left out
In the 6 Hz test, seizures were induced by an electric stimulus of 32 mA and/or 44 mA and a frequency of 6 pulses per second. […] Before starting the test, the eye surface was gently moistened with a solution of local anesthetic (1% lidocaine solution). The study was conducted 30 minutes after intraperitoneal administration of the compounds at various doses. An electrical pulse was delivered continuously for a period of 3 seconds, followed by observation of the animal for a period of 10 seconds. During this time, immobility or stun associated with rearing, forelimb clonus, twitching of the vibrissae and Straub's tail were observed. These symptoms persist throughout the observation period, indicating the occurrence of psychomotor seizures in mice.
as §2

[4] = system: male Swiss albino mice (CD-1); experiment: Subcutaneous pentylenetetrazole seizure test (scPTZ); format: in vivo; conditions: 0.5 h, mice
Experimental: as §1
In the scPTZ test, seizures were induced by subcutaneous administration of pentylenetetrazole (PTZ) at a dose of 100 mg/kg. This caused clonic seizures with accompanying loss of the righting reflex. Test compounds were administered 30 minutes before the experiment. After PTZ administration, the animals were placed individually in transparent containers and observed for a period of 30 minutes for the occurrence of clonic seizures. During this time, the latency of the first onset of clonic seizures, defined as clonus of the whole body lasting at least 3 seconds with loss of the righting reflex and the number of seizure episodes during the test were noted and compared with control group. The absence of clonic convulsions within the observed time period was interpreted as the compound's ability to protect against PTZ-induced seizures (Ferreri, G.; Chimirri, A.; Russo, E.; Gitto, R.; Gareri, P.; De Sarro, A.; De Sarro, G. Pharmacol. Biochem. Behav. 2004, 77, 85-94; Łączkowski, K.; Sałat, K.; Misiura, K.; Podkowa, A.; Malikowska, N. J. Enzyme Inhib. Med. Chem. 2016, 31, 1576-82).
as §2

[5] = Rotarod test (motor coordination); format: in vivo; conditions: male, Swiss albino (CD-1), mouse, in vivo, ip, mice
Experimental: as §1, with “All” for “The male Swiss albino mice (CD-1) weighing 18-26 g were used. All”, “The average effective dose (ED50) in given test and toxic dose in the rotarod test (TD50) was estimated based on the results obtained in 3-4 groups of animals consisting of 6 mice.” left out
Mice were trained the day before the actual experiment. They were placed individually on a 2 cm diameter rod rotating at 10 revolutions per minute (rpm). During each training session, the animals remained on the rod for 3 minutes. The experiment was carried out 30 minutes after administration of the compounds. Motor coordination was tested at the speed of the rotating bar: 10 rpm during 60 seconds. Motor impairments were defined as the inability to remain on the rotating rod for 1 min.
as §2

[6] = Metabolic stability in human liver microsomes; format: in vitro ADME
Experimental: Metabolic stability. The metabolic stability of compound 6 was evaluated using human liver microsomes (HLMs). Internal clearance values CLint were calculated by monitoring changes in compound concentration in the presence of microsomes per unit of time, according to the procedure proposed by Obach R. S. (Obach, R. S. Drug Metab. Dispos. 1999, 27, 1350-1359).
Metabolic stability tests—methodology. Metabolic stability studies for compound 6 were performed using HLMs (Promega, Madison, WI, USA). For this purpose, 10 μL of compound 6 at a concentration of 1000 μM was diluted with 132 μL with tris-HCl buffer (100 mM, pH 7.4), followed by the addition of 8 μL of appropriate microsomes. The reaction mixture was preincubated at 37° C. for 5 minutes, followed by the addition of 50 μL of NADPH Regeneration System, supplied by Promega (Madison, WI, USA). After mixing, the whole mixture was incubated at 37° C. for 120 minutes. To complete the reaction, 200 μL of cold methanol was added to the tubes and centrifuged. The supernatant was subjected to UPLC/MS analysis, including fragmentation analysis. Four mixtures of 6 with HLMs were prepared to determine the internal clearance CLint. Each of these reactions was completed at a different time point, after 5, 15, 30 and 45 min, by the addition of cold methanol containing 50 μM internal standard. Then, according to literature guidelines (Obach, R. S. Drug Metab. Dispos. 1999, 27, 1350-1359), based on the plot of the relationship between the height of the peak from 6 and the height of the internal standard, the regression equation was determined and the reaction rate constant k was calculated. Then the constant k was substituted to equation (1).
The calculated t1/2 value was then substituted into equation (2): […]

For O=C(C(c1ccccc1)N1C(=O)CCC1=O)N1CCC(c2cccc(C(F)(F)F)c2)CC1 (racemic) [Compound 19, 1-(2-Oxo-1-phenyl-2-(4-(3-(trifluoromethyl)phenyl)piperidin-1-yl)ethyl)pyrrolidine-2,5-dione], the ED50 [1] was 81.8 mg/kg, the responders at 100 mg/kg ([1]; screening, 100 mg/kg i.p.) was 100% and the “MES: number of mice protected/number of mice tested” value ([1]; screening, 100 mg/kg i.p.) was “¾”. The ED50 [2] was 41 mg/kg, the responders at 100 mg/kg [2] was 100% and the “6 Hz (44 mA): number of mice protected/number of mice tested” value [3] was 2/4. The ED50 ([4]; Mus musculus, ip) was under 100 mg/kg, the responders at 100 mg/kg ([4]; Mus musculus, ip, screening, 100 mg/kg i.p., read-out: scPTZ: number of mice protected/number of mice tested (converted)) was 100% and the “scPTZ: number of mice protected/number of mice tested” value ([4]; screening, 100 mg/kg i.p., 100 mg/kg) was “¾”. It also gave a TD50 at 0.5 h [5] of 254 mg/kg and a melting point of 100.1 to 101.5 °C.
Work on O=C([C@@H](c1ccccc1)N1C(=O)CCC1=O)N1CCN(c2cccc(C(F)(F)F)c2)CC1 [(R)-6, (R)-1-(2-Oxo-1-phenyl-2-(4-(3-(trifluoromethyl)phenyl)piperazin-1-yl)ethyl) pyrrolidine-2,5-dione] yielded an ED50 [1] of 36 mg/kg, a responders at 100 mg/kg ([1]; screening, 100 mg/kg i.p.) of 100% and an ED50 [2] of 39.1 mg/kg. For the same molecule, the responders at 100 mg/kg [2] was 100%, the ED50 ([3]; Mus musculus, ip) was 115 mg/kg and the “6 Hz (44 mA): number of mice protected/number of mice tested” value [3] was “¾”. For the same molecule, the ED50 ([4]; Mus musculus, ip) was 54.8 mg/kg, the “scPTZ: number of mice protected/number of mice tested” value ([4]; screening, 100 mg/kg i.p.) was “¾” and the TD50 at 0.5 h [5] was 468 mg/kg. The “metabolites found by UPLC after incubation with HLMs” value ([6]; 120 min incubation, UPLC/MS) was “two metabolites” and the CLint scaled at 50 µM ([6]; human, human liver microsomes, pH 7.4, incubation with HLMs, read-out: internal clearance CLint) was 2.4 mL/min/kg.
